Measurements: EPA's CvTdb concentration-time database

Key:
Mouse [1] = test: concentration in plasma after dosing; details: 0.25 h; dosed: 2-Hydroxy-4-methoxybenzophenone; 500 mg/kg; oral; Female; B6C3F1
Rat [2] = test: concentration in plasma after dosing; details: dosed: 2-Hydroxy-4-methoxybenzophenone, 8 mg/kg, iv, Male, F344
Rat [3] = test: concentration in plasma after dosing; details: dosed: 2-Hydroxy-4-methoxybenzophenone, 250 mg/kg, oral, Male, F344
Mouse [4] = test: concentration in plasma after dosing; details: 10 min; dosed: 2-Hydroxy-4-methoxybenzophenone; 250 mg/kg; oral; Male; B6C3F1
Rat [5] = test: concentration in plasma after dosing; details: dosed: 2-Hydroxy-4-methoxybenzophenone, 8 mg/kg, iv, Male, F344; remark: listed apart in the source
Mouse [6] = test: concentration in plasma after dosing; details: 0.25 h; dosed: 2-Hydroxy-4-methoxybenzophenone; 500 mg/kg; oral; Male; B6C3F1
Rat [7] = test: concentration in plasma after dosing; details: 5 min; dosed: Nitrite; 80 mg/kg; oral; Female; F344
Rat [8] = test: concentration in plasma after dosing; details: dosed: Nitrite, 80 mg/kg, oral, Female, F344
Rat [9] = test: concentration in plasma after dosing; details: dosed: Nitrite, 20 mg/kg, iv, Male, F344
Rat [10] = test: concentration in plasma after dosing; details: dosed: Nitrite, 40 mg/kg, oral, Female, F344
Rat [11] = test: concentration in plasma after dosing; details: dosed: Nitrite, 20 mg/kg, iv, Male, F344; remark: listed apart in the source
Rat [12] = test: concentration in plasma after dosing; details: 0.5 h; dosed: Nitrite; 40 mg/kg; oral; Female; F344
Rat [13] = test: concentration in plasma after dosing; details: 2 min; dosed: Nitrite; 80 mg/kg; oral; Female; F344
Rat [14] = test: concentration in liver after dosing; details: 0.5 h; dosed: Fluorotelomer alcohol 8+2; 80 mg/kg; oral; Female; Harlan Sprague Dawley
Rat [15] = test: concentration in brain after dosing; details: 6 h; dosed: Perfluorooctanoic acid; 80 mg/kg; oral; Female; Harlan Sprague Dawley
Rat [16] = test: concentration in kidney after dosing; details: 0.5 h; dosed: Fluorotelomer alcohol 8+2; 80 mg/kg; oral; Female; Harlan Sprague Dawley
Rat [17] = test: concentration in plasma after dosing; details: dosed: 678-39-7, 40 mg/kg, iv, Male, F344
Rat [18] = test: concentration in plasma after dosing; details: dosed: 678-39-7, 40 mg/kg, iv, Male, F344; remark: listed apart in the source
Rat [19] = test: concentration in plasma after dosing; details: 3 h; dosed: Fluorotelomer alcohol 8+2; 12 mg/kg; oral; Male; Harlan Sprague Dawley
Rat [20] = test: concentration in kidney after dosing; details: 24 h; dosed: Perfluorooctanoic acid; 80 mg/kg; oral; Female; Harlan Sprague Dawley
Rat [21] = test: concentration in liver after dosing; details: 3 h; dosed: Perfluorooctanoic acid; 80 mg/kg; oral; Female; Harlan Sprague Dawley
Rat [22] = test: concentration in plasma after dosing; details: 3 h; dosed: 678-39-7; 12 mg/kg; iv; Male; F344
Rat [23] = test: concentration in plasma after dosing; details: dosed: Fluorotelomer alcohol 8+2, 12 mg/kg, oral, Male, Harlan Sprague Dawley
Rat [24] = test: concentration in plasma after dosing; details: 1.5 h; dosed: Potassium Perfluorobutane Sulfonate; 4 mg/kg; iv; Male; F344
Rat [25] = test: concentration in kidney after dosing; details: 0.5 h; dosed: Potassium Perfluorobutane Sulfonate; 20 mg/kg; oral; Female; Harlan Sprague Dawley
Rat [26] = test: concentration in kidney after dosing; details: 3 h; dosed: Potassium Perfluorobutane Sulfonate; 20 mg/kg; oral; Male; Harlan Sprague Dawley
Rat [27] = test: concentration in brain after dosing; details: 1 h; dosed: Potassium Perfluorobutane Sulfonate; 20 mg/kg; oral; Male; Harlan Sprague Dawley
Rat [28] = test: concentration in liver after dosing; details: 1 h; dosed: Potassium Perfluorobutane Sulfonate; 20 mg/kg; oral; Male; Harlan Sprague Dawley
Rat [29] = test: concentration in liver after dosing; details: 3 h; dosed: Potassium Perfluorobutane Sulfonate; 20 mg/kg; oral; Male; Harlan Sprague Dawley
Rat [30] = test: concentration in plasma after dosing; details: 1.5 h; dosed: Potassium Perfluorobutane Sulfonate; 4 mg/kg; iv; Male; F344; remark: listed apart in the source
rat [31] = test: concentration in serum after dosing; details: dosed: benzo[a]pyrene, male, Wistar
rat [32] = test: concentration in blood after dosing; negative times count back from the end of exposure; details: dosed: methanol, inhalation, duration: 6 hr, male

COc1ccc(C(=O)c2ccccc2)c(O)c1 [2-Hydroxy-4-methoxybenzophenone]
Details | concentration in plasma [µg/mL]
Mouse [1] | 0.411
Mouse [4] | 0.148
Mouse [6] | 0.395

Details | concentration in plasma [µg/mL]
Rat [2], 10 h | 0.00852
Rat [2], 10 min | 3.77
Rat [3], 3 h | 0.0913
Rat [3], 10 min | 0.357
Rat [5], 0.25 h | 2.37
Rat [5], 2 h | 0.113

O=N[O-] [Nitrite]
Details | concentration in plasma [µg/mL]
Rat [7] | 8.2
Rat [12] | 6.5
Rat [13] | 3.9

Details | concentration in plasma [µg/mL]
Rat [8], 1 h | 32.7
Rat [8], 2 h | 20.6
Rat [9], 0.75 h | 3.4
Rat [9], 2 min | 14.3
Rat [10], 1 h | 8.3
Rat [10], 2 h | 3.6
Rat [11], 1.5 h | 2
Rat [11], 20 min | 2.6

O=C(O)C(F)(F)C(F)(F)C(F)(F)C(F)(F)C(F)(F)C(F)(F)C(F)(F)F [Perfluorooctanoic acid]
Details | concentration in brain [ng/g] | concentration in kidney [ng/g] | concentration in liver [ng/g] | concentration in plasma [ng/mL]
Rat [14] | – | – | 470 | –
Rat [15] | 3290 | – | – | –
Rat [16] | – | 360 | – | –
Rat [19] | – | – | – | 380
Rat [20] | – | 14000 | – | –
Rat [21] | – | – | 32900 | –
Rat [22] | – | – | – | 497

concentration in plasma [ng/mL]
Details | 0.25 h | 0.5 h | 6 h | 24 h
Rat [17] | 465 | 220000 | 1540 | 1640
Rat [18] | 970 | – | 1760 | –
Rat [23] | 204 | – | 438 | –

O=S(=O)([O-])C(F)(F)C(F)(F)C(F)(F)C(F)(F)F.[K+] [Potassium Perfluorobutane Sulfonate]
Details | concentration in brain [ng/g] | concentration in kidney [ng/g] | concentration in liver [ng/g] | concentration in plasma [ng/mL]
Rat [24] | – | – | – | 17300
Rat [25] | – | 23200 | – | –
Rat [26] | – | 20700 | – | –
Rat [27] | 1210 | – | – | –
Rat [28] | – | – | 100000 | –
Rat [29] | – | – | 64100 | –
Rat [30] | – | – | – | 11400

c1ccc2c(c1)cc1ccc3cccc4ccc2c1c34 [benzo[a]pyrene]
rat [31]
Details | concentration in serum [ng/mL]
0.3352 h, 2 mg/kg, iv | 2230
0.4717 h, 20 mg/kg, oral | 116
0.752 h, 2 mg/kg, iv | 1020
1.006 h, 2 mg/kg, iv | 635
1.061 h, 20 mg/kg, oral | 486
1.985 h, 20 mg/kg, oral | 989
2.002 h, 2 mg/kg, iv | 85.5
3.99 h, 20 mg/kg, oral | 936
4.005 h, 2 mg/kg, iv | 4.48
5.975 h, 20 mg/kg, oral | 261
5.998 h, 2 mg/kg, iv | 2.43
7.98 h, 20 mg/kg, oral | 86
8 h, 2 mg/kg, iv | 2.04
9.966 h, 20 mg/kg, oral | 16.8
24.02 h, 20 mg/kg, oral | 1.38

CO [methanol]
rat [32]
Details | concentration in blood [µg/mL]
-206 s, 2000 ppm, Fischer-344, during exposure | 80.6
-5.613 h, 2000 ppm, Fischer-344, during exposure | 18.9
-5.151 h, 2000 ppm, Fischer-344, during exposure | 24.3
-3.08 h, 2000 ppm, Fischer-344, during exposure | 59.9
0.4288 h, 200 ppm, CDF(F344)/CrlBR | 2.41
0.9278 h, 200 ppm, CDF(F344)/CrlBR | 2.01
1.006 h, 2000 ppm, Fischer-344 | 83.8
1.926 h, 200 ppm, CDF(F344)/CrlBR | 1.4
2.976 h, 2000 ppm, Fischer-344 | 53.3
2.996 h, 200 ppm, CDF(F344)/CrlBR | 1.2
4.511 h, 200 ppm, CDF(F344)/CrlBR | 1.51
5.974 h, 2000 ppm, Fischer-344 | 16.7
8.995 h, 2000 ppm, Fischer-344 | 0.702
11.92 h, 2000 ppm, Fischer-344 | 0.702

rat [32], 200 ppm, CDF(F344)/CrlBR, during exposure
Details | concentration in blood [µg/mL]
-5.615 h | 1.4
-5.115 h | 4.52
-3.047 h | 3.11
-0.07 h | 3.51
